Literature values, collected in US7632656B2, “High performance liquid chromatography with an aqueous mobile phase for analysis of drug and its metabolite” (Cellseed Inc., priority 2003, dated 2009).

Details: listed with the structures of the CYP probe drugs; method not stated

Row | Compound | logP
1 | CCOc1ccc(NC(C)=O)cc1 [Phenacetin] | 0.985
2 | CC12CCC(=O)C=C1CCC1C2CCC2(C)C(O)CCC12 (centres unmarked) [Testosterone] | 2.899
